Test results: paper PMC11306024, “Novel metabolite madeirone and neomarinone extracted from Streptomyces aculeoletus as marine antibiofilm and antifouling agents” (Frontiers in Chemistry, 2024)
Like-named read-outs stand apart in the source and are kept apart here.

Legend:
C. marina = test: Antibacterial activity (growth inhibition, OD600); type: cell-based, Cobetia marina DSM 4741; details: 24 h; for inhibition at 15.6 µg/mL: 15.60 µg/mL
Description: (§1) To assess antimicrofouling activity, we selected five marine bacterial species as models: Marinobacter hydrocarbonoclasticus DSM 8798 (ATCC 49840), C. marina DSM 4741, Phaeobacter inhibens DSM 17,395, Pseusooceanicola batsensis DSM 15,984, and Micrococcus luteus DSM 20030 (ATCC 4698) ([Michael et al., 2016]). These strains, sourced from DSMZ (Leibniz Institute DSMZ—German Collection of Microorganisms and Cell Cultures), were cultured in liquid marine broth (Carl Roth GmbH, Karlsruhe, Germany) with agitation at 180 rpm or on agar-supplemented marine broth. Incubation temperatures were set at 28°C for M. hydrocarbonoclasticus and Cobetia marina, 30°C for P. inhibens and P. batsensis, while M. luteus was maintained at 37°C in Brain Heart Infusion broth (BHI, Becton Dickinson, GmbH, Heidelberg, Germany) under similar agitation conditions.
(§2) The antibacterial efficacy of compounds (1) and (2) was assessed in 96-well polystyrene flat-bottom microplates (Nunclon Delta Surface, Thermo Scientific, Roskilde, Denmark) following established procedures ([Bauermeister et al., 2019]). In the initial screening, bacterial overnight cultures were diluted to an optical density (OD600nm) of 0.2 and incubated statically at appropriate temperatures. The cultures were treated with the following final concentrations per well: 31.25, 15.60, 7.81, 3.91, 1.95, and 0.98 μg/mL (2-fold serial dilutions) of the compounds, solubilized in DMSO, or left untreated. After 24 h (M. hydrocarbonoclasticus, C. marina) or 48 h (P. batsensis, P. inhibens, M. luteus) incubation, optical density at 600 nm (OD600) was measured using a Molecular Devices Spectra Max 190. Growth inhibition percentages were calculated relatively to untreated bacterial species, using DMSO as a negative control. CuSO4 (0.16 μg/mL), a recognized antifouling agent, was used as positive control. All assays were conducted in triplicate, and the results represent the mean and standard error of the mean (SEM). Statistical analysis was carried out using GraphPad Prism 8.0.2 (San Diego, CA, United States), employing one-way ANOVA followed by Dunnett’s multiple comparisons test against the negative control.

M. luteus = test: Antibacterial activity (growth inhibition, OD600); type: cell-based, Micrococcus luteus DSM 20030; details: 48 h
Description: as §1, §2

Daphnia magna = details: 100 µg/mL
Description: The in vivo evaluation of compounds (1) and (2) for acute toxicity was performed towards marine bacterium Aliivibrio fischeri, and planktonic crustacean Daphnia magna. The chronic ecotoxicity tests were evaluated using algae Pseudokirchneriella subcapitata and Phaeodactylum tricornutum.
The immobilization of D. magna at 24 h and 48 h was studied following a micro adaptation of the OECD Guideline 202 procedures (“Daphnia sp., Acute Immobilisation Test and Reproduction Test”), using the Daphtoxkit F (Microbiotests, Gent, Belgium). Firstly, the ISO matrix medium was prepared, aerated and adjusted to pH 7. Next, the neonate daphnids were incubated for 72 h at 20 ± 1°C with light and fed spirulina 2 h prior to use, according to the manufacturer’s instructions. […] For the miniaturization of the procedure, one daphnid neonate was exposed to each compound in 10 mL sterile tubes containing 2 mL of ISO matrix medium, with the compounds at the determined concentrations. The assays were performed in triplicate.

Structure (SMILES): CC1=CCC[C@@H](C)[C@]1(C)CC[C@@]1(C)c2c(O)cc3c(c2O[C@@H]1C)C(=O)C=C(CO)C3=O (relative stereo) [compound 1, madeirone]
- Growth inhibition (%) C. marina (C. marina; 0.98 µg/mL): N.I.
- Growth inhibition (%) C. marina (C. marina; 1.95 µg/mL): N.I.
- Growth inhibition (%) C. marina (C. marina; 3.91 µg/mL): N.I.
- inhibition at 7.81 µg/mL (C. marina; Cobetia marina): 10 ± 2.1%
- inhibition at 15.6 µg/mL (C. marina; Cobetia marina): 7.7 ± 4%
- inhibition at 31.25 µg/mL (C. marina; Cobetia marina): 12.7 ± 2.7%
- Growth inhibition (%) M. luteus (M. luteus; 0.98 µg/mL): N.I.
- Growth inhibition (%) M. luteus (M. luteus; 1.95 µg/mL): N.I.
- Growth inhibition (%) M. luteus (M. luteus; 3.91 µg/mL): N.I.
- Growth inhibition (%) M. luteus (M. luteus; 7.81 µg/mL): N.I.
- Growth inhibition (%) M. luteus (M. luteus; 15.60 µg/mL): N.I.
- inhibition at 15.6 µg/mL (M. luteus; Micrococcus luteus, 15.60 µg/mL): 9.2%
- inhibition at 31.25 µg/mL (M. luteus; Micrococcus luteus, 31.25 µg/mL): 20 ± 0.5%

Structure (SMILES): CC1=CCC[C@@H](C)[C@]1(C)CC[C@@]1(C)c2c(O)cc3c(c2O[C@@H]1C)C(=O)C(C)=C(O)C3=O [compound 2, neomarinone]
- Inhibition (%) D. magna (immobilization) (Daphnia magna; listed as Neomarinone (2)): 33.0%
- Inhibition (%) D. magna (immobilization) (Daphnia magna; listed as neomarinone (2)): 33%
- inhibition at 0.98 µg/mL (C. marina; Cobetia marina, 0.98 µg/mL): 10.7 ± 2.2%
- inhibition at 1.95 µg/mL (C. marina; Cobetia marina, 1.95 µg/mL): 10.8 ± 3.1%
- inhibition at 3.91 µg/mL (C. marina; Cobetia marina, 3.91 µg/mL): 6.5 ± 1.2%
- inhibition at 7.81 µg/mL (C. marina; Cobetia marina): 9.2 ± 2.1%
- inhibition at 15.6 µg/mL (C. marina; Cobetia marina): 7.2 ± 2.9%
- inhibition at 31.25 µg/mL (C. marina; Cobetia marina): 1.1 ± 2%
- Growth inhibition (%) M. luteus (M. luteus; 15.60 µg/mL): N.I.
- Growth inhibition (%) M. luteus (M. luteus; 31.25 µg/mL): N.I.
- inhibition at 0.98 µg/mL (M. luteus; Micrococcus luteus, 0.98 µg/mL): 1.8 ± 0.4%
- inhibition at 1.95 µg/mL (M. luteus; Micrococcus luteus, 1.95 µg/mL): 3.8 ± 1.7%
- inhibition at 3.91 µg/mL (M. luteus; Micrococcus luteus, 3.91 µg/mL): 9 ± 0.9%
- inhibition at 7.81 µg/mL (M. luteus; Micrococcus luteus, 7.81 µg/mL): 6.8 ± 1%
